Measured values from ChEMBL document CHEMBL5154709, “Tetrazole derivatives bearing benzodiazepine moiety-synthesis and action mode against virulence of Candida albicans” (Eur J Med Chem, 2022).
In brackets after ≈: the same amount, converted by molar mass.

How the values were obtained:
Candida albicans [1] = test: Antifungal activity against Candida albicans SC5314 assessed as inhibition of fungal growth at 4 ug/ml incubated for 18 hrs by M27-A3 based microdilution method relative to control; type: functional
Candida albicans [2] = test: Antifungal activity against Candida albicans SC5314 assessed as inhibition of fungal growth at 16 ug/ml incubated for 18 hrs by M27-A3 based microdilution method relative to control; type: functional
Candida albicans [3] = test: Antifungal activity against Candida albicans SC5314 assessed as inhibition of fungal growth at 16 ug/ml incubated for 48 hrs by M27-A3 based microdilution method relative to control; type: functional
Candida albicans [4] = test: Antifungal activity against Candida albicans SC5314 assessed as inhibition of fungal growth at 8 ug/ml incubated for 18 hrs by M27-A3 based microdilution method relative to control; type: functional
Candida albicans [5] = test: Antifungal activity against Candida albicans SC5314 assessed as inhibition of fungal growth at 8 ug/ml incubated for 48 hrs by M27-A3 based microdilution method relative to control; type: functional
Candida albicans [6] = test: Antifungal activity against Candida albicans SC5314 assessed as inhibition of fungal growth at 4 ug/ml incubated for 48 hrs by M27-A3 based microdilution method relative to control; type: functional
Candida albicans [7] = test: Antifungal activity against Candida albicans SC5314 assessed as inhibition of fungal growth at 2 ug/ml incubated for 18 hrs by M27-A3 based microdilution method relative to control; type: functional
Candida albicans [8] = test: Antifungal activity against Candida albicans SC5314 assessed as inhibition of fungal growth at 2 ug/ml incubated for 48 hrs by M27-A3 based microdilution method relative to control; type: functional
Candida albicans [9] = test: Antifungal activity against Candida albicans SC5314 assessed as inhibition of fungal growth at 1 ug/ml incubated for 18 hrs by M27-A3 based microdilution method relative to control; type: functional
Candida albicans [10] = test: Antifungal activity against Candida albicans SC5314 assessed as inhibition of fungal growth at 1 ug/ml incubated for 48 hrs by M27-A3 based microdilution method relative to control; type: functional
Candida albicans [11] = test: Antifungal activity against Candida albicans SC5314 assessed as inhibition of fungal growth at 0.5 ug/ml incubated for 18 hrs by M27-A3 based microdilution method relative to control; type: functional
Candida albicans [12] = test: Antifungal activity against Candida albicans SC5314 assessed as inhibition of fungal growth at 0.5 ug/ml incubated for 48 hrs by M27-A3 based microdilution method relative to control; type: functional
Candida albicans [13] = test: Antifungal activity against Candida albicans SC5314 assessed as inhibition of fungal growth at 0.25 ug/ml incubated for 18 hrs by M27-A3 based microdilution method relative to control; type: functional
Candida albicans [14] = test: Antifungal activity against Candida albicans SC5314 assessed as inhibition of fungal growth at 0.25 ug/ml incubated for 48 hrs by M27-A3 based microdilution method relative to control; type: functional
Candida albicans [15] = test: Antifungal activity against Candida albicans SC5314 assessed as inhibition of fungal growth at 0.125 ug/ml incubated for 18 hrs by M27-A3 based microdilution method relative to control; type: functional
Candida albicans [16] = test: Antifungal activity against Candida albicans SC5314 assessed as inhibition of fungal growth at 0.125 ug/ml incubated for 48 hrs by M27-A3 based microdilution method relative to control; type: functional
Candida albicans [17] = test: Antifungal activity against Candida albicans SC5314 assessed as inhibition of fungal growth at 0.0625 ug/ml incubated for 18 hrs by M27-A3 based microdilution method relative to control; type: functional
Candida albicans [18] = test: Antifungal activity against Candida albicans SC5314 assessed as inhibition of fungal growth at 0.0625 ug/ml incubated for 48 hrs by M27-A3 based microdilution method relative to control; type: functional
Candida albicans [19] = test: Antifungal activity against Candida albicans SC5314 assessed as inhibition of fungal growth at 0.03125 ug/ml incubated for 18 hrs by M27-A3 based microdilution method relative to control; type: functional
Candida albicans [20] = test: Antifungal activity against Candida albicans SC5314 assessed as inhibition of fungal growth at 0.03125 ug/ml incubated for 48 hrs by M27-A3 based microdilution method relative to control; type: functional
[21] = Toxicity in Galleria mellonella larvae assessed as melanization of larvae at 0.23 ug/ml measured every 24 hrs upto 5 days relative to control; conditions: 120 h, at 0.23 µg/mL, time < 5 day
Candida albicans [22] = test: Antifungal activity against Candida albicans assessed as inhibition of fungal growth measured after 48 hrs by M27-A3 based broth microdilution; type: functional
Candida albicans [23] = test: Antifungal activity against Candida albicans assessed as inhibition of fungal growth measured after 48 hrs in presence of exogenous ergosterol by M27-A3 based broth microdilution; type: functional

Row | Structure (SMILES) | inhibition at 4 µg/mL (Candida albicans [1]) [%] | inhibition at 16 µg/mL (Candida albicans [2]) [%] | inhibition at 16 µg/mL (Candida albicans [3]) [%] | inhibition at 8 µg/mL (Candida albicans [4]) [%] | inhibition at 8 µg/mL (Candida albicans [5]) [%] | inhibition at 4 µg/mL (Candida albicans [6]) [%] | inhibition at 2 µg/mL (Candida albicans [7]) [%] | inhibition at 2 µg/mL (Candida albicans [8]) [%] | inhibition at 1 µg/mL (Candida albicans [9]) [%] | inhibition at 1 µg/mL (Candida albicans [10]) [%] | inhibition at 0.5 µg/mL (Candida albicans [11]) [%] | inhibition at 0.5 µg/mL (Candida albicans [12]) [%] | inhibition at 0.25 µg/mL (Candida albicans [13]) [%] | inhibition at 0.25 µg/mL (Candida albicans [14]) [%] | inhibition at 0.125 µg/mL (Candida albicans [15]) [%] | inhibition at 0.125 µg/mL (Candida albicans [16]) [%] | inhibition at 0.0625 µg/mL (Candida albicans [17]) [%] | inhibition at 0.0625 µg/mL (Candida albicans [18]) [%] | inhibition at 0.03125 µg/mL (Candida albicans [19]) [%] | inhibition at 0.03125 µg/mL (Candida albicans [20]) [%] | also measured
1 | ClCCCSc1nnnn1-c1ccccc1 | 98.8 | 98.7 | 98.9 | 98.7 | 98.8 | 98.9 | 98.5 | 98.6 | 98.5 | 98.6 | 98.3 | 98.4 | 98.8 | 98.9 | 98.6 | 98.8 | 98.6 | 98.8 | 98.8 | 98.9 | –
2 | O=C1CN=C(c2ccccc2Br)c2cc(F)ccc2N1CCCSc1nnnn1-c1ccccc1 | 99.9 | 99.8 | 99.8 | 99.9 | 99.8 | 99.8 | 99.8 | 99.7 | 99.8 | 99.7 | 99.9 | 99.8 | 99.8 | 99.7 | 99.9 | 99.8 | 99.7 | 99.7 | 100 | 99.9 | –
3 | COc1ccc(-n2nnnc2SCCCN2C(=O)CN=C(c3ccccc3Br)c3cc(F)ccc32)cc1 | 98.8 | 98.1 | 98.5 | 98.6 | 98.7 | 98.8 | 98.7 | 98.8 | 98.8 | 98.9 | 98.7 | 98.8 | 98.5 | 98.6 | 98.8 | 98.9 | 98.7 | 98.8 | 98.8 | 98.8 | –
4 | O=C1CN=C(c2ccccc2Br)c2cc(F)ccc2N1 | 99.2 | 98.9 | 99.1 | 99.3 | 99.1 | 99.2 | 99 | 99.1 | 99 | 99.2 | 99.2 | 99.2 | 98.9 | 99.1 | 99.1 | 99.1 | 98.7 | 98.7 | 99.1 | 99.1 | –
5 | Cc1ccc(-c2nnn(CCCN3C(=O)CN=C(c4ccccc4Br)c4cc(F)ccc43)n2)cc1 | 94.7 | 100 | 95.4 | 100 | 97.6 | 95.4 | 98.1 | 96.4 | 93.8 | 95 | 92.3 | 95.8 | 97.8 | 98.2 | 98.5 | 97.2 | 99.2 | 96.5 | 100 | 100 | –
6 | O=C1CN=C(c2ccccc2Br)c2cc(F)ccc2N1CCCn1nnc(-c2ccccc2)n1 | 99.6 | 98.5 | 98.4 | 98.4 | 98.5 | 98.9 | 99.6 | 98.4 | 99.4 | 98.9 | 99.5 | 99.3 | 99.8 | 99 | 99.8 | 98.4 | 99.4 | 98.6 | 100 | 100 | –
7 | CCC(C)n1ncn(-c2ccc(N3CCN(c4ccc(OCC5COC(Cn6cncn6)(c6ccc(Cl)cc6Cl)O5)cc4)CC3)cc2)c1=O (stereo not drawn) [ITRACONAZOLE] | – | – | – | – | – | – | – | – | – | – | – | – | – | – | – | – | – | – | – | – | Activity [21]: 13%; MIC (Candida albicans [22]): 0.32 µg/mL (≈ 0.453 µM); MIC (Candida albicans [23]): 0.5 µg/mL
8 | COc1ccc(-n2nnnc2SCCCCl)cc1 | 99.8 | 99.9 | 99.8 | 99.8 | 99.8 | 99.8 | 100 | 99.8 | 99.9 | 99.8 | 99.9 | 99.7 | 100 | 99.9 | 99.9 | 99.9 | 99.9 | 99.8 | 99.8 | 99.7 | –
